# Test results from patent US5399543A, “3-[4-(phenylmethoxy)phenyl]-1-substituted-6-haloalkyl-uracil herbicides” (FMC Corporation, priority 1993, dated 1995).
# Experiments:
# Velvetleaf [1] = assay: Postemergence herbicidal activity, velvetleaf; type: in vivo; conditions: Abutilon theophrasti, post-emergence, 0.3 kg/ha, after 17-21 days, read-out: Postemergence herbicidal activity (% control), Velvetleaf
# Protocol: (§1) The 3-[4-(phenylmethoxy)phenyl]-1-substituted-6-haloalkyluracil herbicides of this invention were tested for pre- and postemergence herbicidal activity using a variety of crops and weeds. The test plants included soybean (Glycine max var. Williams), field corn (Zea mays var. Agway 425X), wheat (Triticum aestivum var. Wheaton), morningglory (Ipomea lacunosa or Ipomea hederacea), velvetleaf (Abutilon theophrasti), green foxtail (Setaria viridis), Johnsongrass (Sorghum halepense), blackgrass (Aloepecurus myosuroides), common chickweed (Stellaria media), and common cocklebur (Xanthium pensylvanicum).
# (§2) For preemergence testing, two disposable fiber flats (8 cm×15 cm×25 cm) for each rate of application of each candidate herbicide were filled to an approximate depth of 6.5 cm with steam-sterilized sandy loam soil. The soil was leveled and impressed with a template to provide five evenly spaced furrows 13 cm long and 0.5 cm deep in each flat. Seeds of soybean, wheat, corn, green foxtail, and johnsongrass were planted in the furrows of the first flat, and seeds of velvetleaf, morningglory, common chickweed, cocklebur, and blackgrass were planted in the furrows of the second flat. The five-row template was employed to firmly press the seeds into place. A topping soil of equal portions of sand and sandy loam soil was placed uniformly on top of each flat to a depth of approximately 0.5 cm. Flats for postemergence testing were prepared in the same manner except that they were planted 8-12 days prior to the preemergence flats and were placed in a greenhouse and watered, thus allowing the seeds to germinate and the foliage to develop.
# (§3) In both pre- and postemergence tests, a stock solution of the candidate herbicide was prepared by dissolving 0.27 g of the compound in 20 mL of water/acetone (50/50) containing 0.5% v/v sorbitan monolaurate. For an application rate of 3000 g/ha of herbicide a 10 mL portion of the stock solution was diluted with water/acetone (50/50) to 45 mL.
# (§4) The preemergence flats were initially subjected to a light water spray. The four flats were placed two by two along a conveyor belt (i.e., the two preemergence followed by the two postemergence flats). The conveyor belt fed under a spray nozzle mounted about ten inches above the postemergent foliage. The preemergent flats were elevated on the belt so that the soil surface was at the same level below the spray nozzle as the foliage canopy of the postemergent plants. The spray of herbicidal solution was commenced and once stabilized, the flats were passed under the spray at a speed to receive a coverage equivalent of 1000 L/ha. At this coverage the application rates are those shown in the above table for the individual herbicidal solutions. The preemergence flats were watered immediately thereafter, placed in the greenhouse and watered regularly at the soil surface. The postemergence flats were immediately placed in the greenhouse and not watered until 24 hours after treatment with the test solution. Thereafter they were regularly watered at ground level. After 17-21 days the plants were examined and the phytotoxicity data were recorded.
# (§5) Herbicidal activity data at selected application rates are given for various compounds of this invention in Table 2 and Table 3. The test compounds are identified by numbers which correspond to those in Table 1.
# (§6) Phytotoxicity data were taken as percent control. Percent control was determined by a method similar to the 0 to 100 rating system disclosed in "Research Methods in Weed Science," 2nd ed., B. Truelove, Ed.; Southern Weed Science Society; Auburn University, Auburn, Ala., 1977.
# Cocklebur [2] = assay: Postemergence herbicidal activity, cocklebur; type: in vivo, Xanthium pensylvanicum; conditions: Xanthium strumarium, post-emergence, 0.3 kg/ha, after 17-21 days, read-out: Postemergence herbicidal activity (% control), Cocklebur
# Protocol: as §1, §2, §3, §4, §5, §6
# Morningglory [3] = assay: Preemergence herbicidal activity, morningglory; type: in vivo, Ipomea lacunosa or Ipomea hederacea; conditions: Ipomoea, pre-emergence, 0.3 kg/ha, after 17-21 days, read-out: Preemergence herbicidal activity (% control), Morningglory
# Protocol: as §1, §2, §3, §4, §5, §6
# Morningglory [4] = assay: Postemergence herbicidal activity, morningglory; type: in vivo, Ipomea lacunosa or Ipomea hederacea; conditions: Ipomoea, post-emergence, 0.3 kg/ha, after 17-21 days, read-out: Postemergence herbicidal activity (% control), Morningglory
# Protocol: as §1, §2, §3, §4, §5, §6
# Soybean [5] = assay: Postemergence herbicidal activity, soybean; type: in vivo, Glycine max var. Williams; conditions: Glycine max, post-emergence, 0.3 kg/ha, after 17-21 days, read-out: Postemergence herbicidal activity (% control), Soybean
# Protocol: as §1, §2, §3, §4, §5, §6
# Johnsongrass [6] = assay: Preemergence herbicidal activity, johnsongrass; type: in vivo; conditions: Sorghum halepense, pre-emergence, 0.3 kg/ha, after 17-21 days, read-out: Preemergence herbicidal activity (% control), Johnsongrass
# Protocol: as §1, §2, §3, §4, §5, §6
# Corn [7] = assay: Postemergence herbicidal activity, corn; type: in vivo, Zea mays var. Agway 425X; conditions: Zea mays, post-emergence, 0.3 kg/ha, after 17-21 days, read-out: Postemergence herbicidal activity (% control), Corn
# Protocol: as §1, §2, §3, §4, §5, §6
# Blackgrass [8] = assay: Postemergence herbicidal activity, blackgrass; type: in vivo, Aloepecurus myosuroides; conditions: Alopecurus myosuroides, post-emergence, 0.3 kg/ha, after 17-21 days, read-out: Postemergence herbicidal activity (% control), Blackgrass
# Protocol: as §1, §2, §3, §4, §5, §6
# Chickweed [9] = assay: Preemergence herbicidal activity, chickweed; type: in vivo; conditions: Stellaria media, pre-emergence, 0.3 kg/ha, after 17-21 days, read-out: Preemergence herbicidal activity (% control), Chickweed
# Protocol: as §1, §2, §3, §4, §5, §6
# Cocklebur [10] = assay: Preemergence herbicidal activity, cocklebur; type: in vivo, Xanthium pensylvanicum; conditions: Xanthium strumarium, pre-emergence, 0.3 kg/ha, after 17-21 days, read-out: Preemergence herbicidal activity (% control), Cocklebur
# Protocol: as §1, §2, §3, §4, §5, §6
# Wheat [11] = assay: Postemergence herbicidal activity, wheat; type: in vivo, Triticum aestivum var. Wheaton; conditions: Triticum aestivum, post-emergence, 0.3 kg/ha, after 17-21 days, read-out: Postemergence herbicidal activity (% control), Wheat
# Protocol: as §1, §2, §3, §4, §5, §6
# Velvetleaf [12] = assay: Preemergence herbicidal activity, velvetleaf; type: in vivo; conditions: Abutilon theophrasti, pre-emergence, 0.3 kg/ha, after 17-21 days, read-out: Preemergence herbicidal activity (% control), Velvetleaf
# Protocol: as §1, §2, §3, §4, §5, §6
# Green foxtail [13] = assay: Preemergence herbicidal activity, green foxtail; type: in vivo; conditions: Setaria viridis, pre-emergence, 0.3 kg/ha, after 17-21 days, read-out: Preemergence herbicidal activity (% control), Green foxtail
# Protocol: as §1, §2, §3, §4, §5, §6
# Wheat [14] = assay: Preemergence herbicidal activity, wheat; type: in vivo, Triticum aestivum var. Wheaton; conditions: Triticum aestivum, pre-emergence, 0.3 kg/ha, after 17-21 days, read-out: Preemergence herbicidal activity (% control), Wheat
# Protocol: as §1, §2, §3, §4, §5, §6
# Blackgrass [15] = assay: Preemergence herbicidal activity, blackgrass; type: in vivo, Aloepecurus myosuroides; conditions: Alopecurus myosuroides, pre-emergence, 0.3 kg/ha, after 17-21 days, read-out: Preemergence herbicidal activity (% control), Blackgrass
# Protocol: as §1, §2, §3, §4, §5, §6
# Chickweed [16] = assay: Postemergence herbicidal activity, chickweed; type: in vivo; conditions: Stellaria media, post-emergence, 0.3 kg/ha, after 17-21 days, read-out: Postemergence herbicidal activity (% control), Chickweed
# Protocol: as §1, §2, §3, §4, §5, §6
# Soybean [17] = assay: Preemergence herbicidal activity, soybean; type: in vivo, Glycine max var. Williams; conditions: Glycine max, pre-emergence, 0.3 kg/ha, after 17-21 days, read-out: Preemergence herbicidal activity (% control), Soybean
# Protocol: as §1, §2, §3, §4, §5, §6
# Corn [18] = assay: Preemergence herbicidal activity, corn; type: in vivo, Zea mays var. Agway 425X; conditions: Zea mays, pre-emergence, 0.3 kg/ha, after 17-21 days, read-out: Preemergence herbicidal activity (% control), Corn
# Protocol: as §1, §2, §3, §4, §5, §6
# Johnsongrass [19] = assay: Postemergence herbicidal activity, johnsongrass; type: in vivo; conditions: Sorghum halepense, post-emergence, 0.3 kg/ha, after 17-21 days, read-out: Postemergence herbicidal activity (% control), Johnsongrass
# Protocol: as §1, §2, §3, §4, §5, §6
# Green foxtail [20] = assay: Postemergence herbicidal activity, green foxtail; type: in vivo; conditions: Setaria viridis, post-emergence, 0.3 kg/ha, after 17-21 days, read-out: Postemergence herbicidal activity (% control), Green foxtail
# Protocol: as §1, §2, §3, §4, §5, §6
SMILES,activity at 300 g/ha (Velvetleaf [1]),activity at 300 g/ha (Cocklebur [2]),activity at 300 g/ha (Morningglory [3]),activity at 300 g/ha (Morningglory [4]),activity at 300 g/ha (Soybean [5]),activity at 300 g/ha (Johnsongrass [6]),activity at 300 g/ha (Corn [7]),activity at 300 g/ha (Blackgrass [8]),activity at 300 g/ha (Chickweed [9]),activity at 300 g/ha (Cocklebur [10]),activity at 300 g/ha (Wheat [11]),activity at 300 g/ha (Velvetleaf [12]),activity at 300 g/ha (Green foxtail [13]),activity at 300 g/ha (Wheat [14]),activity at 300 g/ha (Blackgrass [15]),activity at 300 g/ha (Chickweed [16]),activity at 300 g/ha (Soybean [17]),activity at 300 g/ha (Corn [18]),activity at 300 g/ha (Johnsongrass [19]),activity at 300 g/ha (Green foxtail [20])
Cn1c(C(F)(F)F)cc(=O)n(-c2ccc(OCc3ccc(Cl)c(Cl)c3)cc2)c1=O [Compound 41],100%,100%,80%,100%,85%,20%,25%,0%,95%,20%,0%,100%,95%,0%,20%,85%,40%,0%,35%,45%
Cc1cc(OCc2ccc(Cl)cc2)ccc1-n1c(=O)cc(C(F)(F)F)n(C)c1=O [Compound 13],100%,90%,60%,100%,30%,90%,40%,20%,10%,0%,0%,100%,100%,0%,30%,30%,40%,30%,20%,80%
COc1ccc(COc2ccc(-n3c(=O)cc(C(F)(F)F)n(C)c3=O)cc2)cc1 [Compound 44],40%,50%,100%,90%,40%,10%,30%,50%,20%,25%,10%,100%,60%,10%,20%,20%,40%,0%,50%,70%
"Cn1c(C(F)(F)F)cc(=O)n(-c2ccc(OCc3ccc(Cl)cc3)cc2F)c1=O [Compound 10, 3-[4-(4-Chlorophenylmethoxy)-2-fluorophenyl]-1-methyl-6-trifluoromethyluracil]",100%,100%,100%,100%,95%,95%,50%,40%,100%,100%,10%,100%,100%,20%,50%,100%,100%,20%,95%,100%
COc1ccccc1COc1ccc(-n2c(=O)cc(C(F)(F)F)n(C)c2=O)cc1 [Compound 40],100%,100%,100%,90%,90%,100%,50%,10%,80%,20%,20%,100%,100%,20%,30%,15%,50%,75%,90%,100%
